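How tested: cells in 96-well plates exposed to compound for 48 hours at five concentrations. Abbreviation: GI50, concentration required for 50% inhibition of growth. TGI: concentration producing complete growth inhibition.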
Assays:
Assay in all cases: DTP human tumour cell line panel, 48 h
[1] = tested on: HOP-92 NSCLC
[2] = tested on: OVCAR-3 ovarian
[3] = tested on: SK-OV-3 ovarian
[4] = tested on: SK-MEL-2 melanoma
[5] = tested on: SF-539 CNS
[6] = tested on: U251 CNS
[7] = tested on: SNB-75 CNS
[8] = tested on: UO-31 renal
[9] = tested on: RPMI-8226 leukemia
[10] = tested on: NCI-H460 lung

## COC1=CC(c2ccc[nH]2)=N/C1=C\c1[nH]c(C)c(CC(=O)NCc2ccccc2)c1C
[1]
  GI50: 1400 nM
  TGI: 2.94 µM
[2]
  GI50: 1460 nM
  TGI: 2.91 µM
[3]
  GI50: 1.87 µM
  TGI: 3.39 µM
[4]
  GI50: 1.71 µM
  TGI: 3.29 µM
[5]
  GI50: 1.89 µM
  TGI: 3.51 µM
[6]
  GI50: 1230 nM
  TGI: 2.49 µM
[7]
  GI50: 1.51 µM
  TGI: 2.89 µM
[8]
  GI50: 1.64 µM
  TGI: 3.16 µM

## CCOC(=O)NC(=O)c1cn(CCN(CCO)C(=O)NCCCCCCNC(=O)N(CCO)CCn2cc(C(=O)NC(=O)OCC)c(=O)[nH]c2=O)c(=O)[nH]c1=O
[1]
  TGI: > 100 µM
[2]
  TGI: > 100 µM
[9]
  TGI: > 100 µM
[4]
  TGI: > 100 µM
[5]
  TGI: > 100 µM
[6]
  TGI: > 100 µM
[7]
  TGI: > 100 µM
[8]
  TGI: > 100 µM
[10]
  TGI: > 100 µM

## N/C(=C\c1ccc(/C=C(\NC(=O)c2ccccc2)c2nc3c([nH]2)C(=O)c2ccccc2C3=O)cc1)c1nc2c([nH]1)C(=O)c1ccccc1C2=O
[1]
  TGI: 22.2 µM
[2]
  TGI: 57.3 µM
[9]
  TGI: 26.1 µM
[3]
  TGI: 48.8 µM
[5]
  TGI: 30.2 µM
[6]
  TGI: 33.6 µM
[7]
  TGI: 18.8 µM
[8]
  TGI: 17.7 µM
[10]
  TGI: 36.4 µM

## COc1nc2ccc(Cl)c(C(O)c3ccccc3)c2nc1OC (stereo not given)
[1]
  TGI: 60.6 µM
[2]
  TGI: 69.6 µM
[9]
  TGI: 34.1 µM
[4]
  TGI: 45 µM
[5]
  TGI: 32.8 µM
[6]
  TGI: 88 µM
[7]
  TGI: > 100 µM
[8]
  TGI: > 100 µM
[10]
  TGI: > 100 µM

## COC(Cc1cc(C(O)(c2ccc(C(C)(C)C)cc2)c2cc(CC(OC)(c3cc(C(OC)(c4ccc(C(C)(C)C)cc4)c4ccc(C(C)(C)C)cc4)c(C)cc3C)c3cc(C(OC)(c4ccc(C(C)(C)C)cc4)c4ccc(C(C)(C)C)cc4)c(C)cc3C)c(C)cc2C)c(C)cc1C)(c1cc(C(OC)(c2ccc(C(C)(C)C)cc2)c2ccc(C(C)(C)C)cc2)c(C)cc1C)c1cc(C(OC)(c2ccc(C(C)(C)C)cc2)c2ccc(C(C)(C)C)cc2)c(C)cc1C
[1]
  TGI: > 75 µM
[2]
  TGI: > 75 µM
[3]
  TGI: > 75 µM
[4]
  TGI: > 75 µM
[5]
  TGI: > 75 µM
[6]
  TGI: > 75 µM
[7]
  TGI: > 75 µM
[8]
  TGI: > 75 µM
[10]
  TGI: > 75 µM

## COc1cc(-c2n/c(=C\c3c(O)[nH]c4ccccc34)cc3c2=Nc2ccccc2-3)ccc1F
[1]
  GI50: 3290 nM
  TGI: 19.9 µM
[2]
  GI50: 4080 nM
  TGI: 14.5 µM
[9]
  GI50: 17.5 µM
  TGI: > 100 µM
[3]
  GI50: 17.1 µM
  TGI: 43.5 µM
[4]
  GI50: 21.7 µM
  TGI: 62.2 µM
[5]
  GI50: 11.7 µM
  TGI: 33.2 µM
[6]
  GI50: 2050 nM
  TGI: 4.19 µM
[7]
  GI50: 16.2 µM
  TGI: 63.6 µM
[8]
  GI50: 25.6 µM
  TGI: > 100 µM
[10]
  GI50: 4.37 µM
  TGI: 58.2 µM

## CCCC[n+]1ccn(-c2nc3ccccc3n2C)c1
[2]
  TGI: > 100 µM
[9]
  TGI: > 100 µM
[3]
  TGI: > 100 µM
[4]
  TGI: > 100 µM
[5]
  TGI: > 100 µM
[6]
  TGI: > 100 µM
[7]
  TGI: > 100 µM
[8]
  TGI: > 100 µM
[10]
  TGI: > 100 µM

## CN(CCO)CCC1COc2ccccc2O1 (stereo not given)
[2]
  TGI: > 10 µM
[9]
  TGI: > 10 µM
[3]
  TGI: > 10 µM
[4]
  TGI: > 10 µM
[5]
  TGI: > 10 µM
[6]
  TGI: > 10 µM
[7]
  TGI: > 10 µM
[8]
  TGI: > 10 µM
[10]
  TGI: > 10 µM

From PubChem BioAssay (NCI)
